From ChEMBL document CHEMBL5576110, “Identification of AdipoRon analogues as novel activators of AMPK for the treatment of type 2 diabetes” (RSC Med Chem, 2024)
Active and inactive are the calls of the source. No cut-off for these calls is given here.

Experiments:
C2C12 [1] = assay: Agonist activity at adiponectin receptor in mouse C2C12 cells assessed as increase in AMPK phosphorylation at 10 uM measured after 2 hrs by Western blot analysis; type: cell-based; details: filed as agonist
C2C12 [2] = assay: Induction of glucose consumption in mouse C2C12 cells at 10 uM measured after 12 hrs (reference value: 100%); type: functional
[3] = Half life in mouse liver microsomes by LC/MS analysis; type: ADME, Microsome
[4] = Stability in human liver microsomes assessed as parent compound remaining preincubated for 5 mins followed by NADPH addition measured after 45 mins by LC/MS analysis; type: ADME, Microsome; details: time 50 min, read-out: Stability
[5] = Stability in mouse liver microsomes assessed as parent compound remaining preincubated for 5 mins followed by NADPH addition measured after 45 mins by LC/MS analysis; type: ADME, Microsome; details: time 50 min, read-out: Stability
[6] = Intrinsic clearance in mouse liver microsomes preincubated for 5 mins followed by NADPH addition measured after 45 mins by LC/MS analysis; type: ADME, Microsome; details: time 50 min, read-out: CLH
[7] = Half life in human liver microsomes by LC/MS analysis; type: ADME, Microsome
Mus musculus [8] = assay: Hypoglycemic activity in lean C57BL/6J mouse assessed as reduction in blood glucose level at 10 mg/kg, IG administered 2 hrs prior to glucose challenge measured up to 90 mins by IPGTT; type: functional, organism-based; details: time 3.5 hrs
C2C12 [9] = assay: Cytotoxicity against mouse C2C12 cells at 5 to 20 uM measured after 72 hrs by MTT assay; type: toxicity, cell-based; details: c2c12, 72 h, dose 5-20 µM
[10] = biological target: 5'-AMP-activated protein kinase (Mus musculus) (UniProt Q5EG47+Q8BRK8+Q6PAM0+O54950+Q91WG5+Q9R078+Q8BGM7); assay: Induction of AMPK phosphorylation in mouse C2C12 cells at 10 uM measured after 1 to 12 hrs by Western blot analysis; type: cell-based; details: filed as activator, time 1-12 hrs
HepG2 [11] = assay: Induction of AMPK phosphorylation in human HepG2 cells at 0.1 to 20 uM measured after 2 hrs by Western blot analysis; type: cell-based; details: filed as activator, dose 0.1-20 µM
[12] = Intrinsic clearance in human liver microsomes preincubated for 5 mins followed by NADPH addition measured after 45 mins by LC/MS analysis; type: ADME, Microsome; details: time 50 min, read-out: CLH
Mus musculus [13] = assay: Anti-hyperglycemic activity in db/db mouse assessed as improvement in insulin resistance at 100 mg/kg, IG administered once daily for 6 weeks by insulin tolerance test; type: functional, organism-based
C2C12 [14] = assay: Agonist activity at adiponectin receptor in mouse C2C12 cells assessed as increase in ACC phosphorylation measured after 2 hrs by Western blot analysis; type: cell-based; details: filed as agonist, dose 0.1-20 µM
[15] = Toxicity in db/db mouse assessed as effect on body weight at 100 mg/kg, IG administered once daily for 2 to 6 weeks measured weekly during compound dosing; type: organism-based; details: in vivo, po, time 2-6 weeks
Mus musculus [16] = assay: Hypoglycemic activity in IG dosed lean C57BL/6J mouse assessed as reduction in blood glucose level administered 2 hrs prior to glucose challenge measured up to 90 mins by IPGTT; type: functional, organism-based; details: dose 50-100 mg/kg, time 3.5 hrs
HepG2 [17] = assay: Cytotoxicity against human HepG2 cells at 5 to 20 uM measured after 72 hrs by MTT assay; type: toxicity, cell-based; details: hepg2, 72 h, dose 5-20 µM
Mus musculus [18] = assay: Anti-hyperglycemic activity in db/db mouse assessed as reduction in blood glucose level at 100 mg/kg, IG administered once daily for 2 to 6 weeks measured weekly during compound dosing; type: functional, organism-based; details: time 2-6 weeks
[19] = biological target: T1, Acetyl-CoA carboxylase (Homo sapiens) (UniProt Q13085+O00763); assay: Induction of ACC phosphorylation in human HepG2 cells measured at 10 uM by Western blot analysis; type: cell-based; details: filed as activator, time 0.5-12 hrs, TDE = time-dependent effect
[20] = biological target: T1, Acetyl-CoA carboxylase (Homo sapiens); assay: Induction of ACC phosphorylation in human HepG2 cells measured after 2 hrs by Western blot analysis; type: cell-based; details: filed as activator, dose 0.1-20 µM
HepG2 [21] = assay: Induction of AMPK in human HepG2 cells at 10 uM measured after 0.5 to 12 hrs by Western blot analysis; type: cell-based; details: filed as activator, time 0.5-12 hrs
[22] = Agonist activity at adiponectin receptor in mouse C2C12 cells assessed as increase in AMPK phosphorylation; type: cell-based
Mus musculus [23] = assay: Hypoglycemic activity in lean C57BL/6J mouse assessed as reduction in blood glucose level at 100 mg/kg, IG administered 2 hrs prior to glucose challenge measured up to 90 mins by IPGTT; type: functional, organism-based; details: time 3.5 hrs

SMILES | Activity (C2C12 [1]) | Activity (C2C12 [2]) | also measured
CC(C)(Oc1ccc(C(=O)c2ccccc2)cc1)C(=O)N1CCN(C(=O)/C=C/c2ccccc2)CC1 | Active | 132.5% | –
COc1ccc(/C=C/C(=O)NC2CCN(C(=O)C(C)(C)Oc3ccc(C(=O)c4ccc(Cl)cc4)cc3)CC2)cc1OC | Active | 118.3% | –
COc1ccc(/C=C/C(=O)N2CCC(NC(=O)C(C)(C)Oc3ccc(C(=O)c4ccccc4)cc3)CC2)cc1OC | Active | 104.5% | –
COc1cc(/C=C/C(=O)NC2CCN(C(=O)C(C)(C)Oc3ccc(C(=O)c4ccccc4)cc3)CC2)ccc1O | Active | 128.5% | –
COc1cc(/C=C/C(=O)N2CCC(NC(=O)C(C)(C)Oc3ccc(C(=O)c4ccc(Cl)cc4)cc3)CC2)ccc1O | Active | 126.1% | –
O=C(c1ccc(F)cc1)C1CCN(CCn2c(=O)[nH]c3ccccc3c2=O)CC1 [KETANSERIN] | – | – | half-life [3]: 26 min; remaining at 0.75 h [4]: 31%; remaining at 0.75 h [5]: 29%; CLint scaled [6]: 245 mL/min/kg; half-life [7]: 28 min
CC(C)(Oc1ccc(C(=O)c2ccc(Cl)cc2)cc1)C(=O)NC1CCN(C(=O)/C=C/c2ccccc2)CC1 | Active | 117.3% | –
COc1ccc(/C=C/C(=O)N2CCN(C(=O)C(C)(C)Oc3ccc(C(=O)c4ccc(Cl)cc4)cc3)CC2)cc1OC | Active | 138.5% | –
CC(C)(Oc1ccc(C(=O)c2ccc(Cl)cc2)cc1)C(=O)N1CCN(C(=O)/C=C/c2ccccc2)CC1 | Active | 129% | –
COc1ccc(/C=C/C(=O)N2CCC(NC(=O)C(C)(C)Oc3ccc(C(=O)c4ccc(Cl)cc4)cc3)CC2)cc1OC | Active | 125.1% | –
O[C@@H]1CO[C@H]2[C@@H]1OC[C@H]2Oc1nc2nc(-c3ccc(-c4ccccc4)cc3)c(Cl)cc2[nH]1 | – | – | Activity (Mus musculus [8]): Active
COc1cc(/C=C/C(=O)N2CCC(NC(=O)C(C)(C)Oc3ccc(C(=O)c4ccccc4)cc3)CC2)ccc1O | Active | 115.2% | –
COc1ccc(/C=C/C(=O)N2CCN(C(=O)C(C)(C)Oc3ccc(C(=O)c4ccccc4)cc3)CC2)cc1OC | Active | 135.8% | –
COc1cc(/C=C/C(=O)N2CCN(C(=O)C(C)(C)Oc3ccc(C(=O)c4ccccc4)cc3)CC2)ccc1O | Active | 136.4% | –
CC(C)(Oc1ccc(C(=O)c2ccccc2)cc1)C(=O)NC1CCN(C(=O)/C=C/c2ccccc2)CC1 | Active | 121.3% | –
CC(C)(Oc1ccc(C(=O)c2ccc(Cl)cc2)cc1)C(=O)N1CCC(NC(=O)/C=C/c2ccccc2)CC1 | Active | 113% | –
COc1cc(/C=C/C(=O)N2CCN(C(=O)C(C)(C)Oc3ccc(C(=O)c4ccc(Cl)cc4)cc3)CC2)ccc1O | Active | 141.7% | Activity (C2C12 [9]): Non-Toxic; Activity [10]: Active; half-life [3]: 33 min; Activity (HepG2 [11]): Active; CLint scaled [12]: 21 mL/min/kg; Activity (Mus musculus [13]): Active; remaining at 0.75 h [4]: 69%; remaining at 0.75 h [5]: 38%; Activity (C2C12 [14]): Dose-Dependent Effect; CLint scaled [6]: 156 mL/min/kg; Activity [15]: Non-Toxic; half-life [7]: 87 min; Activity (Mus musculus [16]): Dose-Dependent Effect; Activity (HepG2 [17]): Non-Toxic; Activity (Mus musculus [18]): Active; Activity [19]: Tde; Activity [20]: Dose-Dependent Effect; Activity (HepG2 [21]): Active
COc1ccc(/C=C/C(=O)NC2CCN(C(=O)C(C)(C)Oc3ccc(C(=O)c4ccccc4)cc3)CC2)cc1OC | Active | 116.7% | –
CC(C)(Oc1ccc(C(=O)c2ccccc2)cc1)C(=O)N1CCC(NC(=O)/C=C/c2ccccc2)CC1 | Active | 117.6% | –
O=C(COc1ccc(C(=O)c2ccccc2)cc1)NC1CCN(Cc2ccccc2)CC1 | Active | 135.2% | EC50 [22]: ~10 µM; Activity (Mus musculus [23]): Active
